Assay results as given in PMC9807860 (Current Research in Food Science, 2022).
“Also recorded” adds a separate entry of the source.

Experiments:
tyrosinase [1] = target: T1, tyrosinase (Agaricus bisporus, UniProt C7FF04); type: biochemical, mushroom
Target sequence in this assay (C7FF04 2-392): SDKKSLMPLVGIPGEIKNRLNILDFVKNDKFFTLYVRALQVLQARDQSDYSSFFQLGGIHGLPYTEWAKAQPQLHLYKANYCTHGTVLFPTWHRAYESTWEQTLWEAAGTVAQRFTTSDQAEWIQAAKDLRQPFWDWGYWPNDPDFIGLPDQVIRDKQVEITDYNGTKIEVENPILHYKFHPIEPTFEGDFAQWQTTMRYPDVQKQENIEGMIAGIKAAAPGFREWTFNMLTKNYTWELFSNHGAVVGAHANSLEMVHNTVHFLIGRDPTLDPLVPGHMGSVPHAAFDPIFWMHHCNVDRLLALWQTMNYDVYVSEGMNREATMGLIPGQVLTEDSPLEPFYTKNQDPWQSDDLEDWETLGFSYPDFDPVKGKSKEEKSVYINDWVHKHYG

tyrosinase [2] = target: T1, tyrosinase; experiment: Fluorescence spectrum quenching of tyrosinase; type: binding, mushroom
Target sequence in this assay (C7FF04 2-392): as above

tyrosinase [3] = target: T1, tyrosinase; conditions: Lineweaver-Burk plots; Vmax decreased, Km unchanged
Target sequence in this assay (C7FF04 2-392): as above

fresh-cut apple slices = experiment: Anti-browning experiment with fresh-cut apple slices; conditions: apple slices dipped 5 min, stored at 4 °C; compared with kojic acid
Cell viability assay = type: cell-based; conditions: human, HEK-293 cells
tyrosinase [4] = target: T1, tyrosinase; experiment: ANS-binding fluorescence spectrum quenching; design: species or system mushroom; conditions: 6j 0–59.41 μM
Target sequence in this assay (C7FF04 1-392): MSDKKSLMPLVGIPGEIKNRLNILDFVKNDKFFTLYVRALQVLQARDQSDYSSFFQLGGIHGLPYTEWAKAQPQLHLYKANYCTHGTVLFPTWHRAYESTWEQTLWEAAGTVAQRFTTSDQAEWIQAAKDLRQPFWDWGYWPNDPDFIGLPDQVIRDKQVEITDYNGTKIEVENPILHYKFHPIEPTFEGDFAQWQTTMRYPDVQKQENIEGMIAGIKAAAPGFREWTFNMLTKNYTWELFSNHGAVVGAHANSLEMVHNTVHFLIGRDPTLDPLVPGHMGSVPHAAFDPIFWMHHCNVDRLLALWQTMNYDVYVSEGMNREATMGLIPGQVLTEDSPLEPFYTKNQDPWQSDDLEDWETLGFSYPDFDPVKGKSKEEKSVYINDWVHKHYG

[5] = plot of Lg[(F0−F)/F] against Lg[Q]

CCOc1cccc(C=O)c1OCc1cc(=O)c(O)co1 [6i]
Inhibitory activity against tyrosinase (in words) (tyrosinase [1]): relatively lower inhibitory activity

Cc1cc(C=O)cc(C)c1OCc1cc(=O)c(O)co1 [6h]
Inhibitory activity against tyrosinase (in words) (tyrosinase [1]): relatively lower inhibitory activity

COc1cc(C=O)cc(Br)c1OCc1cc(=O)c(O)co1 [6k]
Inhibitory activity against tyrosinase (in words) (tyrosinase [1]): relatively lower inhibitory activity

COc1cccc(C=O)c1OCc1cc(=O)c(O)co1 [6g]
Inhibitory activity against tyrosinase (in words) (tyrosinase [1]): relatively lower inhibitory activity

O=Cc1ccc(OCc2cc(=O)c(O)co2)cc1F [6j]
Type of quenching (tyrosinase [2]; Stern-Volmer analysis): static quenching | Ksv (Stern-Volmer quenching constant) (tyrosinase [2]; excitation 280 nm, 6j 4.99–24.79 μM): 7040 M⁻¹ | Ka (binding constant) (tyrosinase [2]; [5]): 28900 M⁻¹ | n (binding sites) (tyrosinase [2]; [5]): 1.24 | Kq (biomolecular quenching constant) (tyrosinase [2]; τ0 10^−8 s): 7.04e+11 M⁻¹ s⁻¹ | Inhibition type (tyrosinase [3]): noncompetitive inhibitor | Anti-browning effect (L*, ΔE, visual assessment) (fresh-cut apple slices): could delay the enzymatic browning of fresh-cut apples; also recorded: stronger anti-browning effect than kojic acid | Anti-tyrosinase activity relative to the positive control kojic acid (tyrosinase [1]; ratio of IC50 values): nine folds more active | viability at 24 h, 1 µM (Cell viability assay): 97.1 ± 2.49% | viability at 24 h, 4 µM (Cell viability assay): 106 ± 8.83% | viability at 24 h, 16 µM (Cell viability assay): 102 ± 10.1% | viability at 24 h, 64 µM (Cell viability assay): 105 ± 7.27% | viability at 24 h, 256 µM (Cell viability assay): 88.6 ± 3.61% | ANS-binding fluorescence: maximum emission peak wavelength and intensity (tyrosinase [4]): did not present an obvious change

COc1cc(C=O)cc(OC)c1OCc1cc(=O)c(O)co1 [6c]
Inhibitory activity against tyrosinase (in words) (tyrosinase [1]): relatively lower inhibitory activity
